This note sets out measurements from the supplement of paper PMC12613149.

The nature of data set [1]: reversed-phase LC retention time (C18, 15 min MeOH gradient); higher = more hydrophobic / later elution. The protocol: (§1)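 Reference mixture of environmental contaminants analysed by RP-LC (BEH C18, 50 °C; ESI+ with water/MeOH plus formic acid and ammonium formate, ESI- with ammonium bicarbonate) coupled to a timsTOF Pro 2 with trapped ion mobility in nitrogen (ramp/accumulation 100 ms). CCS was calibrated with Agilent tune mix (CCS compendium) and averaged over five injections at 0.5-500 ng/mL. The table reports the lowest-CCS (putative monomer) peak; retention times are on the same gradient.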

Data set [2] is described as follows: collision cross section (TIMS, N2 drift gas) of the primary ion; higher = larger gas-phase ion size. The protocol: as §1
Where [3] appears, read: ionization mode: ESI-, ion species: [M-H]-.
[4] abbreviates: ionization mode: ESI+, ion species: [M+H]+.
[5] abbreviates: ionization mode: ESI+, ion species: [M]+.

Regarding `CCc1cc(Cc2cc(CC)cc(C(C)(C)C)c2O)c(O)c(C(C)(C)C)c1` [2,2'-Methylenebis(4-ethyl-6-t-butylphenol)], the “reversed-phase LC retention time” value in data set [1] (setting [3]) amounted to 19.3 min. The same compound gave a collision cross section in data set [2] (setting [3]) of 204.77 Å².

As for `Cc1cc(Cc2cc(C)cc(C(C)(C)C)c2O)c(O)c(C(C)(C)C)c1` [2,2'-Methylenebis(6-tert-butyl-p-cresol)], in data set [1] (setting [3]), the “reversed-phase LC retention time” value worked out at 18.8 min. In data set [2] (setting [3]), the collision cross section worked out at 196.67 Å².

In the case of `Nc1ccc(Cc2ccc(N)c(Cl)c2)cc1Cl` [2,2'-dichloro-4,4'-methylenedianiline], the “reversed-phase LC retention time” value in data set [1] (setting [4]) is 13.8 min. Moreover, the collision cross section in data set [2] (setting [4]) turned out to be 173.31 Å².

In the case of `CC(C)C(=O)OCC(C)(C)C(OC(=O)C(C)C)C(C)C` (stereo not given) [2,2,4-Trimethyl-1,3-pentanediol diisobutyrate], the “reversed-phase LC retention time” value in data set [1] (setting [4]) came to 17 min. Further, in data set [2] (setting [4]), the collision cross section was 172.79 Å².

As to `C[N+](C)(C)CC1CO1` (stereo not given) [2,3-Epoxypropyltrimethylammonium], in data set [1] (setting [5]), the “reversed-phase LC retention time” value worked out at 0.95 min. In data set [2] (setting [5]), this compound displayed a collision cross section of 117.85 Å².

Regarding `Oc1c(Br)cc(Br)cc1Br` [2,4,6-Tribromophenol], in data set [1] (setting [3]), the “reversed-phase LC retention time” value was 12.8 min. Besides, the collision cross section in data set [2] (setting [3]) is reported as 133.11 Å².

For the compound `O=C(O)c1ccc(Cl)cc1Cl` [2,4-Dichlorobenzoic acid], the “reversed-phase LC retention time” value in data set [1] (setting [3]) stood at 6.78 min. In data set [2] (setting [3]), this compound yielded a collision cross section of 124.87 Å².

In the case of `O=C(c1ccccc1)c1ccc(O)cc1O` [2,4-Dihydroxybenzophenone], the “reversed-phase LC retention time” value in data set [1] (setting [3]) turned out to be 11.7 min. In data set [2] (setting [3]), this compound yielded a collision cross section of 146.26 Å².

In the case of `O=[N+]([O-])c1ccc(O)c([N+](=O)[O-])c1` [2,4-Dinitrophenol], the “reversed-phase LC retention time” value in data set [1] (setting [3]) was 6.09 min. This compound also returned a collision cross section in data set [2] (setting [3]) of 125.27 Å².

Regarding `CN(C)Cc1cc(C(C)(C)C)c(O)c(C(C)(C)C)c1` [2,6-Di-tert-Butyl-4-(dimethylamino)methylphenol], the “reversed-phase LC retention time” value amounted to 12.7 min in data set [1] (setting [4]) and 17.1 min in data set [1] (setting [3]). The collision cross section in data set [2] (setting [4]) is reported as 176.35 Å²; in data set [2] (setting [3]) it was 173.06 Å².

As for `NC(=O)c1c(Cl)cccc1Cl` [2,6-Dichlorobenzamide], the “reversed-phase LC retention time” value in data set [1] (setting [4]) amounted to 7.49 min. In data set [2] (setting [4]), the collision cross section worked out at 133.04 Å².

With `Cc1cccc(C)c1N` [2,6-Xylidine], the “reversed-phase LC retention time” value in data set [1] (setting [4]) worked out at 17.9 min. This compound also yielded a collision cross section in data set [2] (setting [4]) of 117.81 Å².

With `O=S(=O)(O)c1ccc2ccc(S(=O)(=O)O)cc2c1` [2,7-Naphthalenedisulfonic acid], in data set [1] (setting [3]), the “reversed-phase LC retention time” value worked out at 0.97 min. In data set [2] (setting [3]), this compound yielded a collision cross section of 159.15 Å².

`Nc1ccc2nc3ccc(N)cc3nc2c1` [2,8-Diaminophenazine]: the “reversed-phase LC retention time” value in data set [1] (setting [4]) worked out at 8.22 min. In data set [2] (setting [4]), this compound registered a collision cross section of 143.53 Å².

With `COCCOCCOCCO` [2-(2-(2-Methoxyethoxy)ethoxy)ethanol], in data set [1] (setting [4]), the “reversed-phase LC retention time” value was determined as 10.6 min. Further, in data set [2] (setting [4]), the collision cross section turned out to be 135.18 Å².

In the case of `CCCCCCOc1ccc(-c2nc(-c3ccccc3)nc(-c3ccccc3)n2)c(O)c1` [2-(4,6-Diphenyl-1,3,5-triazine-2-yl)-5-(hexyloxy)-phenol], the “reversed-phase LC retention time” value in data set [1] (setting [4]) came to 21.2 min. Moreover, in data set [2] (setting [4]), the collision cross section was 221.42 Å².

Regarding `O=S(=O)(O)CCNC1CCCCC1` [2-(Cyclohexylamino)-ethansulfonic acid], the “reversed-phase LC retention time” value was 5.19 min in data set [1] (setting [4]) and 6.1 min in data set [1] (setting [3]). In addition, the collision cross section in data set [2] (setting [4]) is reported as 148.57 Å²; in data set [2] (setting [3]) it was 148.72 Å².

As for `CCN(CC)c1nc(=O)cc(C)[nH]1` [2-(Diethylamino)-6-methylpyrimidin-4-one], in data set [1] (setting [4]), the “reversed-phase LC retention time” value is 7.54 min. In data set [2] (setting [4]), this compound came in with a collision cross section of 138.67 Å².

For the compound `N#Cc1c(Cl)c(Cl)c(S(=O)(=O)O)c(C(N)=O)c1Cl` [2-Amido-3,5,6-trichloro-4-cyanobenzenesulfonic acid], the “reversed-phase LC retention time” value in data set [1] (setting [3]) stood at 7.02 min. Besides, the collision cross section in data set [2] (setting [3]) worked out at 154.35 Å².

Take `Cn1c(N)nc2ncc(-c3ccccc3)cc21` [2-Amino-1-methyl-6-phenylimidazo[4,5-b]pyridine (PhIP)]: the “reversed-phase LC retention time” value in data set [1] (setting [4]) is 9.5 min; in data set [1] (setting [3]) it was 12.1 min. In addition, the collision cross section was determined as 152.56 Å² in data set [2] (setting [4]) and 152.05 Å² in data set [2] (setting [3]).

Consider `Cc1cnc2ccc3c(nc(N)n3C)c2n1` [2-Amino-3,8-dimethylimidazo-[4,5-f]quinoxaline (MeIQx)], for which the results for the “reversed-phase LC retention time” value in data set [1] (setting [4]) and in data set [1] (setting [3]) were 7.67 min and 9.09 min, respectively. Moreover, the collision cross section is 147.79 Å² in data set [2] (setting [4]) and 147.68 Å² in data set [2] (setting [3]).

As for `Cn1c(N)nc2c3cccnc3ccc21` [2-Amino-3-methyl-imidazo[4,5-f]quinoline (IQ)], the “reversed-phase LC retention time” value in data set [1] (setting [4]) stood at 6.04 min; in data set [1] (setting [3]), 8.79 min. Besides, the collision cross section in data set [2] (setting [4]) came out at 138.89 Å²; in data set [2] (setting [3]), 139.48 Å².

With `Nc1ccc2c(n1)[nH]c1ccccc12` [2-Amino-9H-pyrido[2,3-b]indole (AalphaC)], the “reversed-phase LC retention time” value in data set [1] (setting [3]) is 12 min. The compound further returned a collision cross section in data set [2] (setting [3]) of 135.27 Å².

Regarding `Nc1nc2ccccc2[nH]1` [2-Aminobenzimidazole], the “reversed-phase LC retention time” value in data set [1] (setting [4]) came to 5.92 min. Besides, the collision cross section in data set [2] (setting [4]) stood at 124.95 Å².

For the compound `Nc1ccccc1-c1ccccc1` [2-Aminobiphenyl], in data set [1] (setting [4]), the “reversed-phase LC retention time” value was 12.8 min. Also, the collision cross section in data set [2] (setting [4]) was found to be 141.24 Å².
